Source: ChEMBL document CHEMBL5058645, “Data for DCP probe JNJ-6204” (2022)

Key:
[1] = biological target: Dual specificity protein kinase CLK2 (Homo sapiens) (UniProt P49760); assay: CLK2(h) Kinase panel; details: Compound concentration 1.0 uM, tested as the 2H-labelled form
Homo sapiens = species on record: Homo sapiens; assay: MAPK2(h) Kinase panel; details: Compound concentration 1.0 uM, tested as the 2H-labelled form
[2] = biological target: G protein-coupled receptor kinase 3 (Homo sapiens) (UniProt P35626); assay: GRK3(h) Kinase panel; details: Compound concentration 1.0 uM, tested as the 2H-labelled form
[3] = biological target: Cyclin-dependent kinase-like 2 (Homo sapiens) (UniProt Q92772); assay: CDKL2(h) Kinase panel; details: Compound concentration 1.0 uM, tested as the 2H-labelled form
[4] = biological target: Alpha-2A adrenergic receptor (Homo sapiens) (UniProt P08913); details: Compound concentration 10.0 uM, tested as the 2H-labelled form
[5] = biological target: Serine/threonine-protein kinase ATR (Homo sapiens) (UniProt Q13535); assay: ATR/ATRIP(h) Kinase panel; details: Compound concentration 1.0 uM, tested as the 2H-labelled form
[6] = biological target: Tyrosine-protein kinase HCK (Homo sapiens) (UniProt P08631); assay: Hck(h) activated Kinase panel; details: Compound concentration 1.0 uM, tested as the 2H-labelled form
[7] = biological target: Mitogen-activated protein kinase kinase kinase 11 (Homo sapiens) (UniProt Q16584); assay: MLK3(h) Kinase panel; details: Compound concentration 1.0 uM, tested as the 2H-labelled form
[8] = biological target: Ephrin type-B receptor 3 (Homo sapiens) (UniProt P54753); assay: EphB3(h) Kinase panel; details: Compound concentration 1.0 uM, tested as the 2H-labelled form
[9] = biological target: Casein kinase I isoform alpha (Homo sapiens, UniProt P48729); assay: CK1alpha(h) Kinase panel; details: Compound concentration 1.0 uM, tested as the 2H-labelled form
Chain of Casein kinase I isoform alpha (P48729 2-337 limits assumed): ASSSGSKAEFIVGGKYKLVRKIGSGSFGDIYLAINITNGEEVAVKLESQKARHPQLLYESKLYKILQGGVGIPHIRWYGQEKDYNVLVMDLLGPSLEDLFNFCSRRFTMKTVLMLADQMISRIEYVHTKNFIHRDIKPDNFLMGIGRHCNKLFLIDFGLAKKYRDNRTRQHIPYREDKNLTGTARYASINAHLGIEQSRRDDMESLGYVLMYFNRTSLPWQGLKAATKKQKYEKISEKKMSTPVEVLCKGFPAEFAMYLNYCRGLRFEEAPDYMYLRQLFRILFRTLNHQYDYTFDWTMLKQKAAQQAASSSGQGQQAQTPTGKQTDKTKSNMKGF

[10] = biological target: Serine/threonine-protein kinase TAO3 (Homo sapiens) (UniProt Q9H2K8); assay: TAO3(h) Kinase panel; details: Compound concentration 1.0 uM, tested as the 2H-labelled form
[11] = biological target: 5-hydroxytryptamine receptor 2C (Homo sapiens) (UniProt P28335); details: Compound concentration 10.0 uM, tested as the 2H-labelled form
[12] = biological target: Glycogen synthase kinase-3 beta (Homo sapiens) (UniProt P49841); assay: GSK3β(h) Kinase panel; details: Compound concentration 1.0 uM, tested as the 2H-labelled form
[13] = biological target: Serine/threonine-protein kinase Nek9 (Homo sapiens) (UniProt Q8TD19); assay: NEK9(h) Kinase panel; details: Compound concentration 1.0 uM, tested as the 2H-labelled form
[14] = biological target: Focal adhesion kinase 1 (Homo sapiens) (UniProt Q05397); assay: FAK(h) Kinase panel; details: Compound concentration 1.0 uM, tested as the 2H-labelled form
[15] = biological target: Kappa-type opioid receptor (Homo sapiens) (UniProt P41145); details: Compound concentration 10.0 uM, tested as the 2H-labelled form
[16] = biological target: RAC-beta serine/threonine-protein kinase (Homo sapiens) (UniProt P31751); assay: PKBbeta (h) Kinase panel; details: Compound concentration 1.0 uM, tested as the 2H-labelled form
[17] = biological target: 5-hydroxytryptamine receptor 2A (Homo sapiens) (UniProt P28223); details: Compound concentration 10.0 uM, tested as the 2H-labelled form
[18] = biological target: Tyrosine-protein kinase Fgr (Homo sapiens) (UniProt P09769); assay: Fgr(h) Kinase panel; details: Compound concentration 1.0 uM, tested as the 2H-labelled form
[19] = biological target: Mitogen-activated protein kinase 8 (Homo sapiens) (UniProt P45983); assay: JNK1alpha1(h) Kinase panel; details: Compound concentration 1.0 uM, tested as the 2H-labelled form
Chain of Mitogen-activated protein kinase 8 (Homo sapiens) (P45983 whole entry): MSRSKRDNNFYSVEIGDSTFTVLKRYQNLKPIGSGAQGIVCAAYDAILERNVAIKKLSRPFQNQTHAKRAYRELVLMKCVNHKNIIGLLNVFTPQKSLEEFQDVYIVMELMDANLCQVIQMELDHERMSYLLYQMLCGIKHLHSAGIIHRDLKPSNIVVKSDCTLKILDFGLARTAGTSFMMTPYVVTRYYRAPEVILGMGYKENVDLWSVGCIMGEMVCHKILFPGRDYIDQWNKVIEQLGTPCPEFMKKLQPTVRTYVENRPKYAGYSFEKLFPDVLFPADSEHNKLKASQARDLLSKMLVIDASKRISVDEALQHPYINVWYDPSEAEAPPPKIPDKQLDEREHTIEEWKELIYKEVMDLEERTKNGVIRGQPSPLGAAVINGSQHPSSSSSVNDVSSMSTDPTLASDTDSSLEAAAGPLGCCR

[20] = biological target: Protein kinase C beta type (Homo sapiens) (UniProt P05771); assay: PKCbetaI (h) Kinase panel; details: Compound concentration 1.0 uM, tested as the 2H-labelled form
[21] = biological target: Alpha-1A adrenergic receptor (Homo sapiens) (UniProt P35348); details: Compound concentration 10.0 uM, tested as the 2H-labelled form
[22] = biological target: Cyclin-dependent kinase-like 1 (Homo sapiens) (UniProt Q00532); assay: CDKL1(h) Kinase panel; details: Compound concentration 1.0 uM, tested as the 2H-labelled form
Chain of Cyclin-dependent kinase-like 1 (Homo sapiens) (Q00532 whole entry): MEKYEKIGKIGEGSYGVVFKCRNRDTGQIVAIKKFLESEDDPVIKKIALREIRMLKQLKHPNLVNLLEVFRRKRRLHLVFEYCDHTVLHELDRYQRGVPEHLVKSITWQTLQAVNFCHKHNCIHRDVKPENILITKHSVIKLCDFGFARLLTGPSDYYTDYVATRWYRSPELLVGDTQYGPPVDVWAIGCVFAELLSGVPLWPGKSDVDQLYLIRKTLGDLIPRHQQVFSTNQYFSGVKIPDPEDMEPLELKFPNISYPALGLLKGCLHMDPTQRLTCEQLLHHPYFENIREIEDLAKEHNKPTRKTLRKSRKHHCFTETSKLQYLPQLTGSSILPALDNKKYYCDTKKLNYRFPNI

[23] = biological target: Tyrosine-protein kinase CSK (Homo sapiens) (UniProt P41240); assay: CSK(h) Kinase panel; details: Compound concentration 1.0 uM, tested as the 2H-labelled form
Chain of Tyrosine-protein kinase CSK (Homo sapiens) (P41240 2-450 limits assumed): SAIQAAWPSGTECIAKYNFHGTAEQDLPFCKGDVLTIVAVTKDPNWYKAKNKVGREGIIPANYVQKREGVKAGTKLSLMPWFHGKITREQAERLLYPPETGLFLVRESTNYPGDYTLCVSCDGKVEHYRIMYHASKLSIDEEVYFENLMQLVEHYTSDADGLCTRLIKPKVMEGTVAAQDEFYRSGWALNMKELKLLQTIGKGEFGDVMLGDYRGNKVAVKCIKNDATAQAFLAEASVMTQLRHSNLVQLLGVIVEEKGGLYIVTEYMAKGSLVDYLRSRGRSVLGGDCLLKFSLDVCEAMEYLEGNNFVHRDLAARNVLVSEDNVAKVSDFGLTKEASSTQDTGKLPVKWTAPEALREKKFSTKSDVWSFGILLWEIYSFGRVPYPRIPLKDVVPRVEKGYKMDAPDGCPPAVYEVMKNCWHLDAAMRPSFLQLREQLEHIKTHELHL

[24] = biological target: Receptor tyrosine-protein kinase erbB-4 (Homo sapiens) (UniProt Q15303); assay: ErbB4(h) Kinase panel; details: Compound concentration 1.0 uM, tested as the 2H-labelled form
[25] = biological target: 5-hydroxytryptamine receptor 1A (Homo sapiens) (UniProt P08908); details: Compound concentration 10.0 uM, tested as the 2H-labelled form
Chain of 5-hydroxytryptamine receptor 1A (Homo sapiens) (P08908 whole entry): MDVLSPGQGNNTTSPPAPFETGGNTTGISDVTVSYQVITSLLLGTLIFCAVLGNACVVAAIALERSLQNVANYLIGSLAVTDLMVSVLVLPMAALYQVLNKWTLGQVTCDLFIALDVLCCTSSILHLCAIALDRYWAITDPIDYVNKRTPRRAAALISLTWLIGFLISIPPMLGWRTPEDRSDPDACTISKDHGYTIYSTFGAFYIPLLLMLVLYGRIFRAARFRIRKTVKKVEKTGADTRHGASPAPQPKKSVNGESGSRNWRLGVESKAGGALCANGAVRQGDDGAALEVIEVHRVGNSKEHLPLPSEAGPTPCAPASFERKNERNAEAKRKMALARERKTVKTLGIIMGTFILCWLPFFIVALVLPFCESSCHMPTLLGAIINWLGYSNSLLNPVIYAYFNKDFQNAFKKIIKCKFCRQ

[26] = biological target: Tyrosine-protein kinase TXK (Homo sapiens) (UniProt P42681); assay: Txk(h) Kinase panel; details: Compound concentration 1.0 uM, tested as the 2H-labelled form
[27] = biological target: LIM domain kinase 1 (Homo sapiens) (UniProt P53667); assay: LIMK1(h) Kinase panel; details: Compound concentration 1.0 uM, tested as the 2H-labelled form
[28] = biological target: Fibroblast growth factor receptor 1 (Homo sapiens) (UniProt P11362); assay: FGFR1(h) Kinase panel; details: Compound concentration 1.0 uM, tested as the 2H-labelled form
[29] = biological target: SNF-related serine/threonine-protein kinase (Homo sapiens) (UniProt Q9NRH2); assay: SNRK(h) Kinase panel; details: Compound concentration 1.0 uM, tested as the 2H-labelled form
[30] = biological target: Misshapen-like kinase 1 (Homo sapiens) (UniProt Q8N4C8); assay: MINK(h) Kinase panel; details: Compound concentration 1.0 uM, tested as the 2H-labelled form
[31] = biological target: Eukaryotic elongation factor 2 kinase (Homo sapiens) (UniProt O00418); assay: eEF-2K(h) Kinase panel; details: Compound concentration 1.0 uM, tested as the 2H-labelled form
[32] = biological target: Casein kinase I isoform gamma-2 (Homo sapiens) (UniProt P78368); assay: CK1gamma2(h) Kinase panel; details: Compound concentration 1.0 uM, tested as the 2H-labelled form
[33] = biological target: STE20/SPS1-related proline-alanine-rich protein kinase (Homo sapiens) (UniProt Q9UEW8); assay: STK39(h) Kinase panel; details: Compound concentration 1.0 uM, tested as the 2H-labelled form
[34] = biological target: Tyrosine-protein kinase Fyn (Homo sapiens) (UniProt P06241); assay: Fyn(h) Kinase panel; details: Compound concentration 1.0 uM, tested as the 2H-labelled form
[35] = biological target: Serine/threonine-protein kinase 26 (Homo sapiens) (UniProt Q9P289); assay: MST4(h) Kinase panel; details: Compound concentration 1.0 uM, tested as the 2H-labelled form
[36] = biological target: Serine/threonine-protein kinase TAO1 (Homo sapiens) (UniProt Q7L7X3); assay: TAO1(h) Kinase panel; details: Compound concentration 1.0 uM, tested as the 2H-labelled form
[37] = biological target: cGMP-dependent protein kinase 2 (Homo sapiens) (UniProt Q13237); assay: PRKG2(h) Kinase panel; details: Compound concentration 1.0 uM, tested as the 2H-labelled form
[38] = biological target: Tyrosine-protein kinase ITK/TSK (Homo sapiens) (UniProt Q08881); assay: Itk(h) Kinase panel; details: Compound concentration 1.0 uM, tested as the 2H-labelled form
[39] = biological target: Vascular endothelial growth factor receptor 2 (Homo sapiens) (UniProt P35968); assay: KDR(h) Kinase panel; details: Compound concentration 1.0 uM, tested as the 2H-labelled form
[40] = biological target: Cyclin-dependent kinase-like 3 (Homo sapiens) (UniProt Q8IVW4); assay: CDKL3(h) Kinase panel; details: Compound concentration 1.0 uM, tested as the 2H-labelled form
Chain of Cyclin-dependent kinase-like 3 (Homo sapiens) (Q8IVW4 whole entry, looked up, canonical isoform): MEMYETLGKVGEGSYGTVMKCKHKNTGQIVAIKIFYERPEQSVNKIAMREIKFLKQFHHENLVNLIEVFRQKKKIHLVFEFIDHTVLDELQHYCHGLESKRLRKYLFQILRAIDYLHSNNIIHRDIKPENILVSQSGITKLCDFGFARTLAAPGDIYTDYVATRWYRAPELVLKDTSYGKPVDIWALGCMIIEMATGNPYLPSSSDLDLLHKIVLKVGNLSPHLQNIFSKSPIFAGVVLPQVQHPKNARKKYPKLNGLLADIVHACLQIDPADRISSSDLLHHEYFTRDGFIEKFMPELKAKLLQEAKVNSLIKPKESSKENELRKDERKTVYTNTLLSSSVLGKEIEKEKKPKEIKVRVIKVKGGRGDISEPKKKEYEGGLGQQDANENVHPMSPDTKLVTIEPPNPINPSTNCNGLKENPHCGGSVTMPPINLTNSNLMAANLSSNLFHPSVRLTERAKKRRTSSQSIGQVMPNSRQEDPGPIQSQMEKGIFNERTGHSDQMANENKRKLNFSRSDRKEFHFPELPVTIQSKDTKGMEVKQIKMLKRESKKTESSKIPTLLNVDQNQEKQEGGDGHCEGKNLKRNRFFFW

[41] = biological target: Casein kinase I isoform gamma-3 (Homo sapiens) (UniProt Q9Y6M4); assay: CK1gamma3(h) Kinase panel; details: Compound concentration 1.0 uM, tested as the 2H-labelled form
[42] = biological target: Ephrin type-A receptor 2 (Homo sapiens) (UniProt P29317); assay: EphA2(h) Kinase panel; details: Compound concentration 1.0 uM, tested as the 2H-labelled form
[43] = biological target: Cyclin-dependent kinase 1 (Homo sapiens) (UniProt P06493); assay: CDK1/cyclinB(h) Kinase panel; details: Compound concentration 1.0 uM, tested as the 2H-labelled form
Chain of Cyclin-dependent kinase 1 (Homo sapiens) (P06493 whole entry, looked up): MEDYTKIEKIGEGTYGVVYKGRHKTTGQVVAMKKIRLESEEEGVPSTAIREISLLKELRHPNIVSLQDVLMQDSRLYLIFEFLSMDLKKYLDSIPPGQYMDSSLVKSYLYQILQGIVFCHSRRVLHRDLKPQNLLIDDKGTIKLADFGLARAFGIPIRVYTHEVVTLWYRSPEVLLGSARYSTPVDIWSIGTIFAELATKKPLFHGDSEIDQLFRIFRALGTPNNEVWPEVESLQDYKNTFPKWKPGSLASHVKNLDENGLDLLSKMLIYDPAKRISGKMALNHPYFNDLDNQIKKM

[44] = biological target: Macrophage-stimulating protein receptor (Homo sapiens) (UniProt Q04912); assay: Ron(h) Kinase panel; details: Compound concentration 1.0 uM, tested as the 2H-labelled form
[45] = biological target: Leukocyte tyrosine kinase receptor (Homo sapiens) (UniProt P29376); assay: LTK(h) Kinase panel; details: Compound concentration 1.0 uM, tested as the 2H-labelled form
[46] = biological target: Mitogen-activated protein kinase 14 (Homo sapiens, UniProt Q16539); assay: SAPK2a(h) Kinase panel; details: Compound concentration 1.0 uM, tested as the 2H-labelled form
[47] = biological target: TRAF2 and NCK-interacting protein kinase (Homo sapiens, UniProt Q9UKE5); assay: TNIK(h) Kinase panel; details: Compound concentration 1.0 uM, tested as the 2H-labelled form
Chain of TRAF2 and NCK-interacting protein kinase (Q9UKE5 whole entry, looked up): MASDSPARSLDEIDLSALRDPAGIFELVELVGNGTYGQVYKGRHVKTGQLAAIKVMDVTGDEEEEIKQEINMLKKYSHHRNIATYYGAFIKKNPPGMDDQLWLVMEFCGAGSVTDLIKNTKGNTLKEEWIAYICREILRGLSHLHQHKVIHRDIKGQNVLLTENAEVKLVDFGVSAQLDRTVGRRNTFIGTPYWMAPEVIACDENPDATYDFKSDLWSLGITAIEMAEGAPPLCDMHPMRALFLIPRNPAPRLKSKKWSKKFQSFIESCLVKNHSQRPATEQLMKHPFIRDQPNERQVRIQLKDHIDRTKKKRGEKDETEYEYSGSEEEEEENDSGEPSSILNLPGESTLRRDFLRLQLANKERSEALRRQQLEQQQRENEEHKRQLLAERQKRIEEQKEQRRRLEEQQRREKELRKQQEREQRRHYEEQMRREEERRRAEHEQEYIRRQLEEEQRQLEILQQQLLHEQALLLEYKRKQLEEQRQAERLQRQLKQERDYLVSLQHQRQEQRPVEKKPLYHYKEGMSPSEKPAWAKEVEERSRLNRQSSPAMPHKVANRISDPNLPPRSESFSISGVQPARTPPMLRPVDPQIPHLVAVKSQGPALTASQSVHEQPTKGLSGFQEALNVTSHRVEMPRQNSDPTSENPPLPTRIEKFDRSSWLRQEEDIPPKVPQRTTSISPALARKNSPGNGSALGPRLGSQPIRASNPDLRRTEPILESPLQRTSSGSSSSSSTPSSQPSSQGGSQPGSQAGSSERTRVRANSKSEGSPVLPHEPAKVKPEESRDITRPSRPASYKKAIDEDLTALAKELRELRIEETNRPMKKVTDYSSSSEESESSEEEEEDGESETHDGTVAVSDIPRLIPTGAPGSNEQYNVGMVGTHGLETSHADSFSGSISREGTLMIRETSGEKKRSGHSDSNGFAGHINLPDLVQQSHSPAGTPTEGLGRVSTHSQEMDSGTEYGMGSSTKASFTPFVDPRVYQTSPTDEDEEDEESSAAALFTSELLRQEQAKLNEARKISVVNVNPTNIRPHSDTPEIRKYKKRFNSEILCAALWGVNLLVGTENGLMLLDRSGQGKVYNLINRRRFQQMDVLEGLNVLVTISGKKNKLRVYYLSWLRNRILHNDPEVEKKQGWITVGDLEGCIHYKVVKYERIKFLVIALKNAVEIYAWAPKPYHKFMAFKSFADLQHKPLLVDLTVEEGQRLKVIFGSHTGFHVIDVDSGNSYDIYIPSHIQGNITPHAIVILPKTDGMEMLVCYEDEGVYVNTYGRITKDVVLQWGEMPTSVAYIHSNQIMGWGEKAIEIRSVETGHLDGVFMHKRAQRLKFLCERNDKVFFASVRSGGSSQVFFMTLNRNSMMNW

[48] = biological target: Calcium/calmodulin-dependent protein kinase type IV (Homo sapiens) (UniProt Q16566); assay: CaMKIV(h) Kinase panel; details: Compound concentration 1.0 uM, tested as the 2H-labelled form
[49] = biological target: Phosphatidylinositol 4-phosphate 5-kinase type-1 gamma (Homo sapiens) (UniProt O60331); assay: PIP5K1g(h) Kinase panel; details: Compound concentration 1.0 uM, tested as the 2H-labelled form
[50] = biological target: Histamine H3 receptor (Homo sapiens) (UniProt Q9Y5N1); details: Compound concentration 10.0 uM, tested as the 2H-labelled form
[51] = biological target: Tyrosine-protein kinase Srms (Homo sapiens) (UniProt Q9H3Y6); assay: SRMS(h) Kinase panel; details: Compound concentration 1.0 uM, tested as the 2H-labelled form
[52] = biological target: Casein kinase I isoform gamma-1 (Homo sapiens) (UniProt Q9HCP0); assay: CK1gamma1(h) Kinase panel; details: Compound concentration 1.0 uM, tested as the 2H-labelled form
Chain of Casein kinase I isoform gamma-1 (Homo sapiens) (Q9HCP0 whole entry, looked up, canonical isoform): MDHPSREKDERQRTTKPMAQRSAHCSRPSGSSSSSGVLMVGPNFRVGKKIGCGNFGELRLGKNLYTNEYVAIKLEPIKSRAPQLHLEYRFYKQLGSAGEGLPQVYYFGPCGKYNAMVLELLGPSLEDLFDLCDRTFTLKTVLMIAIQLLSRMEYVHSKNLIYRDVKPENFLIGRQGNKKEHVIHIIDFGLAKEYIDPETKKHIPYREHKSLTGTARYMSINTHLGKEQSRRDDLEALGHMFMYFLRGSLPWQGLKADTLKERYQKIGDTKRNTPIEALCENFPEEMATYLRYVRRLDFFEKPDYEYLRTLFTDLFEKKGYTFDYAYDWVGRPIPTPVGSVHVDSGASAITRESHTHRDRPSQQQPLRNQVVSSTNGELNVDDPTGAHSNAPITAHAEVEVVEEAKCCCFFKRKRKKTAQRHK

Measured: inhibition

CC1(C)Cn2nc(-c3ccc(F)cn3)c(-c3ccnc4[nH]ncc34)c2CO1
inactive: [1] 14% | Homo sapiens 6% | [2] 15% | [3] 0% | [4] 15.4% | [5] 16% | [6] 9% | [7] 5% | [8] 14% | [9] 73% | [10] 5% | [11] -1.69% | [12] 4% | [13] 6% | [14] 1% | [15] 12% | [16] 0% | [17] 16.5% | [18] 7% | [19] -6% | [20] 4% | [21] 0.58% | [22] 11% | [23] -3% | [24] 19% | [25] 1.3% | [26] 16% | [27] -9% | [28] 5% | [29] 4% | [30] 2% | [31] 7% | [32] -1% | [33] 11% | [34] 20% | [35] 6% | [36] -5% | [37] 11% | [38] -8% | [39] 2% | [40] -7% | [41] -2% | [42] 17% | [43] -8% | [44] 13% | [45] 13% | [46] 12% | [47] 50% | [48] -5% | [49] -1% | [50] -1.16% | [51] 6% | [52] 4%
